Experimental data reported in ChEMBL document CHEMBL1201862, “PubChem BioAssay data set” (2004).
Calls of active or inactive are those of the source. Rule as the data show it, for most assays here: actives have a measured EC50 and inactives only a lower limit.

Experiments:
[1] = NIH-3T3 fibroblast cytotoxicity, dose response, cytotoxicity control, cell-based, fluorescence, Alamar Blue, secondary assay (AID 2327); assay type: functional;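 also: NIH-3T3 mouse fibroblasts cultured with fluconazole at 8 µg/mL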
[2] = C. albicans growth with fluconazole, confirmation, fluorescence, retest (AID 2467); assay type: functional, cell-based
[3] = test system: INS1; assay: beta cell apoptosis inhibitors, cytokine rescue, dose response, luminescence, retest (AID 449756); assay type: functional, cell-based; conditions: Rattus norvegicus;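 also: cell death triggered by IL-1 beta plus TNF-alpha plus IFN-gamma mixture; protective hits raise ATP signal compared with cytokine alone wells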
[4] = target: Paired box protein Pax-8 (Homo sapiens, UniProt Q06710); assay: inhibitors of PAX8-driven TPO luciferase reporter, dose response, RMG-I cells, cherry-pick (AID 687027); assay type: functional, cell-based;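 also: luciferase reporter driven by Pax8 target thyroperoxidase promoter measured by SteadyGlo luminescence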
[5] = test system: Streptococcus sp. 'group A'; assay: growth inhibition of control SK(-) GAS strain, dose response, counter-screen for streptokinase expression inhibitor project, luminescence, kanamycin, BacTiterGlo, confirmation (AID 1900); assay type: functional, organism-based
[6] = target: T1, Streptokinase A (Streptococcus pyogenes serotype M1, UniProt P10520); assay: S. pyogenes streptokinase expression inhibitors, potency, dose response, plasminogen activation absorbance, OD405 (AID 1914); assay type: functional, Streptococcus pyogenes M1 GAS;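 also: secreted streptokinase activity via plasminogen activation per viability signal from cell pellet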
T1 sequence (P10520 whole entry): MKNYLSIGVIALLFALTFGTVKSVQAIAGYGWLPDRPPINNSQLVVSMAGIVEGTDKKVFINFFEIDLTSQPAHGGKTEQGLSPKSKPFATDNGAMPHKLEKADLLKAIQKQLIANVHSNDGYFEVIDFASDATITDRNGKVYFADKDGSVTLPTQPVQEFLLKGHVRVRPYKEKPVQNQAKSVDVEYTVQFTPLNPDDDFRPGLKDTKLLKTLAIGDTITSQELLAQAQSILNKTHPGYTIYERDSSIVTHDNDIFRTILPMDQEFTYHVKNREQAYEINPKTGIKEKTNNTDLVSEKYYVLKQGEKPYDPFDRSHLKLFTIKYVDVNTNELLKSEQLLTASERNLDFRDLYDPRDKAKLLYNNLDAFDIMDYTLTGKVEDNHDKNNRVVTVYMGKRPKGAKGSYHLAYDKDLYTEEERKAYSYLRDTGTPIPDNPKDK

[7] = test system: Streptococcus; assay: Group A Streptococcus viability loss, dose response, counter-screen for streptokinase expression inhibitor project, luminescence, BacTiterGlo (AID 1915); assay type: functional, organism-based;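 also: potency for reduction of bacterial viability or growth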
[8] = target: T2, Heat shock factor protein 1 (Mus musculus, UniProt P38532); assay: HSF1 potentiators in luciferase reporter cells, confirmation, cell-based, NIH3T3, luminescence, dose retest (AID 435004); assay type: functional;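 also: stress induced by proteasome inhibitor MG132 added 30 min after compound; luciferase reporter driven by HSF1 response element in NIH3T3 cells; actives raise luminescence as potentiators of the MG132 stress response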
T2 sequence (P38532 whole entry): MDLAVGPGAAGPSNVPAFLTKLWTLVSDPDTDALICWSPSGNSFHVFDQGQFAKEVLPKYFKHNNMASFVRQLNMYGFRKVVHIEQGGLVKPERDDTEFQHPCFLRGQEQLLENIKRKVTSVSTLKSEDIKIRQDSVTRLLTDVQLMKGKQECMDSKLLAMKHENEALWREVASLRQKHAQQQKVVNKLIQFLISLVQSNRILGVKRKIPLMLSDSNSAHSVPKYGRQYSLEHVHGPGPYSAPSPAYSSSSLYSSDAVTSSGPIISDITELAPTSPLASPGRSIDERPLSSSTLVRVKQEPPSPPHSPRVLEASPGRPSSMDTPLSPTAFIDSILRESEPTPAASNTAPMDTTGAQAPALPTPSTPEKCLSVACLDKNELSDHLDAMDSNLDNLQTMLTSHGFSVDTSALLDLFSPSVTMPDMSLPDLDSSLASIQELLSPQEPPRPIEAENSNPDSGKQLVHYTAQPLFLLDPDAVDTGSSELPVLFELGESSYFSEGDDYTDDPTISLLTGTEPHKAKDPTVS

[9] = inhibitors of intracellular T. cruzi replication, confirmation, NIH3T3 host cells, beta-gal luminescence (AID 2044); assay type: functional, cell-based;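 also: intracellular parasites grown in NIH/3T3 mouse fibroblasts as host cells; luminescent beta-galactosidase reporter signal from transgenic T. cruzi replicating inside host cells; inhibitors lower the luminescence signal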
[10] = cytotoxicity toward NIH3T3 fibroblasts, dose response, counter-screen, cell-based, ATP luminescence, mouse fibroblasts (AID 2010); assay type: functional;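 also: cells exposed to compound for about 90 hours before reading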

Chain of Paired box protein Pax-8 (Q06710 whole entry): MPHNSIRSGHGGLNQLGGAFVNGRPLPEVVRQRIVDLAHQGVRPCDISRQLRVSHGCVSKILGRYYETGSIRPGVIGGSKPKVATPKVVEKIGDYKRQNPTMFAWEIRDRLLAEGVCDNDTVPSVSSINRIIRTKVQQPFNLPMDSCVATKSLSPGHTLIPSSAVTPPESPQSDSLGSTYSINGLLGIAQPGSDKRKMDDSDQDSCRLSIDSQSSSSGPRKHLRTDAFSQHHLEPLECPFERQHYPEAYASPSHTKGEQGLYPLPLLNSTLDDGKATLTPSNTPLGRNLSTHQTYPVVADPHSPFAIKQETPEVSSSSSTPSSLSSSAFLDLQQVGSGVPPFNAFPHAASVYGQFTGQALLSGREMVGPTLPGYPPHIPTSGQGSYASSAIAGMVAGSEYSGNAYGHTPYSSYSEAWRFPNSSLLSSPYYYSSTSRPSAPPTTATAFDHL

In the case of `CN(C)S(=O)(=O)Oc1cccc(C(=O)Nc2ccc(Cl)cc2)c1`, the EC50 [1] is reported as > 160 µM (inactive) and the EC50 [2] is reported as 1.25 µM (active).
In the case of `CCC1CCCCN1C(=O)c1cc(COc2ccc(-n3cncn3)cc2)on1` (stereo not given), the AC50 [3] is reported as 8.64 µM (active).
For `CCCCCc1ccc(-c2cn(CN3C(=O)c4ccccc4C3=O)nn2)cc1`, the AC50 [3] was 1.82 µM (active).
In the case of `Cc1cccc(-c2ccc([C@H]3[C@H](CO)N4CCCCN(S(=O)(=O)c5ccccc5C)C[C@@H]34)cc2)c1`, the AC50 [4] is reported as 11.4 µM (active).
In the case of `CC1CCN(c2nc(CN3CCCCC3)nc3scc(-c4ccccc4)c23)CC1`, the EC50 [5] is reported as 16.9 µM (active), the EC50 [6] is reported as 19.1 µM (inconclusive) and the EC50 [7] is reported as > 150 µM (not active).
For `CC(C)CN(C(=O)COC(=O)C12CC3CC(CC(Cl)(C3)C1)C2)c1c(N)n(Cc2ccccc2)c(=O)[nH]c1=O`, the AC50 [3] was 7.15 µM (active).
In the case of `COCCCN1C(=O)C(O)=C(C(=O)c2ccc(OCC(C)C)cc2C)C1c1cccnc1` (stereo not given), the EC50 [1] is reported as > 150 µM (inactive) and the EC50 [2] is reported as > 38 µM (not active).
In the case of `COCCn1c(SCC(=O)NC2CCCCC2)nc2c(c1=O)SCC2`, the EC50 [8] is reported as > 260 µM (inactive).
With `Fc1ccccc1N=C(S)N1CCN(c2ccccn2)CC1` the EC50 [8] was > 260 µM (inactive).
For `C/C=C/c1c(F)c(F)c(Oc2ccc(C(=O)O)cc2)c(F)c1F`, the EC50 [8] was > 260 µM (inactive).
For `COC(=O)C1=NN(C(=O)c2ccc(Cl)cc2)C(O)(c2ccccc2)C1` (stereo not given), the EC50 [1] was 29.9 µM (active) and the EC50 [2] was > 38 µM (not active).
In the case of `O=C(Cc1nc2ccccc2nc1O)c1ccc(Cl)cc1`, the EC50 [8] is reported as 198 µM (inconclusive).
For `O=C(NC1CCCCC1)c1cc([N+](=O)[O-])n[nH]1`, the EC50 [1] was 154 µM (active) and the EC50 [2] was 1.66 µM (active).
In the case of `O=C1CCC(/C=C/c2ccccc2)=NN1`, the EC50 [8] is reported as > 260 µM (inactive).
For `CC(=O)c1c(N2CCOCC2)nc2ccc(Br)cc2c1-c1ccccc1`, the EC50 [8] was 124 µM (active).
For `CCOC(=O)c1c(C)oc2c1c(C(c1ccccc1)N1CCOCC1)c(O)c1ccccc12` (stereo not given), the EC50 [5] was 3.16 µM (active), the EC50 [6] was 0.886 µM (active) and the EC50 [7] was 5.32 µM (active).
In the case of `C=CCN1C(=O)NC(c2ccccc2)(C(F)(F)F)S/C1=C(\C#N)c1nnc(N2CCOCC2)n1-c1ccccc1` (stereo not given), the EC50 [8] is reported as 22.1 µM (active).
With `COCC(=O)Nc1nc2n(n1)C(c1ccccc1Cl)CC(c1ccc(OC)cc1)N2` (stereo not given) the EC50 [1] was > 160 µM (inactive) and the EC50 [2] was > 38 µM (not active).
With `COc1ccc(N(CC(=O)NCCC2=CCCCC2)S(=O)(=O)c2ccccc2)cc1` the EC50 [8] was > 260 µM (inactive).
For `CCn1cc(Cl)c(C(=O)N2N=C(c3ccc4ccccc4c3)CC2c2ccccc2O)n1` (stereo not given), the EC50 [5] was 9.18 µM (active), the EC50 [6] was 13 µM (active) and the EC50 [9] was 1.66 µM (active). For the same compound, the EC50 [10] was > 60 µM (inconclusive) and the EC50 [7] was > 150 µM (not active).
With `CCOc1ccc(CN(CCCl)CCCl)cc1C(=O)OC` the EC50 [8] was 12.6 µM (active).
In the case of `CC(=O)OCC1=C(C(=O)O)N2C(=O)C(NC(=O)c3ccc(F)cc3)C2SC1` (stereo not given), the EC50 [5] is reported as 3.94 µM (active), the EC50 [6] is reported as > 150 µM (not active) and the EC50 [7] is reported as 7.79 µM (active).
With `Nc1c(Cl)ncnc1N/N=C/c1ccccn1` the AC50 [3] was 0.521 µM (active).
In the case of `c1ccc2c(Nc3nc4c(s3)CCCC4)cccc2c1`, the EC50 [5] is reported as 14.4 µM (active), the EC50 [6] is reported as 19.6 µM (inconclusive) and the EC50 [7] is reported as > 150 µM (not active).
With `COc1ccc(CCn2c(C)cc(C(=O)COC(=O)c3ccc(NC(=O)CC#N)cc3)c2C)cc1` the EC50 [5] was 61.7 µM (active), the EC50 [6] was > 150 µM (not active) and the EC50 [7] was > 150 µM (not active).
With `O=C(c1ccc(Br)cc1)N1CCCC(c2nc(-c3cccs3)no2)C1` (stereo not given) the EC50 [8] was > 260 µM (inactive).
With `CSc1nc2nccc(-c3ccc(-c4ccccc4)cc3)n2n1` the EC50 [5] was 3.79 µM (active), the EC50 [6] was > 150 µM (not active) and the EC50 [7] was 23.6 µM (active).
In the case of `COc1cccc(/N=C/C2=C(O)OC3(CCCCC3)OC2=O)c1`, the EC50 [8] is reported as > 260 µM (inconclusive).
For `Cc1occc1C(=O)N1CCCC(N2CCN(c3cccc(C(F)(F)F)c3)CC2)C1` (stereo not given), the AC50 [3] was 111 µM (active).
